Here are results for two compounds from patent US20090318468A1, “PYRAZOLE COMPOUNDS 436” (AstraZeneca AB, priority 2008, published 2009).

Where “and” joins values, the source holds several entries; their conditions need not be identical. Equal entries are not always repeated.

One may read the IC50 as the point on the concentration scale where inhibition reaches its midpoint.

One test addresses FGFR1 (Homo sapiens, UniProt P11362). Put plainly: FGFR1 Kinase Assay - Caliper Echo Dosing. The format is biochemical. Conditions: 408 uM ATP, separate test occasions listed, read-out: IC50 (inhibition of FGFR1 kinase activity). The protocol:
FGFR1 Kinase Assay—Caliper Echo Dosing
To determine inhibition of FGFR1 activity, kinase assays were conducted using Caliper technology.
Kinase activity assays were performed in Greiner 384-well low volume plates, with a total reaction volume of 12 ul per well. Final concentration of FGFR1 active kinase in each reaction well was 7.2 nM. The substrate for each assay was a custom peptide with fluorescent tag (13 amino acids in length, […] with the fluorescene tag on the first K).
Compounds were dispensed directly in to assay plates using a Labcyte Echo 550 acoustic droplet ejection unit. […]
Assay plates were incubated at room temperature for 1.5 h, before the reaction was stopped with the addition of buffer [comprising: 100 mM HEPES—pH 7.5, 0.033% Brij-35 (Sigma Catalogue No. B4184), 0.22% Caliper Coating Reagent #3 (Caliper Life Sciences Catalogue No. 760050), 88 mM EDTA, 5% DMSO]. Stopped assay plates were then read using the Caliper LabChip® LC3000 (which uses microfludics to measure a shift in mobility between fluorescent labelled peptide and the FGFR1 kinase—phosphorylated form of this peptide).
In the assay, compounds were tested at a range of concentrations. […] Percentage inhibition at 1 uM, as expressed herein, is a calculated value based on the curve fit that was generated experimentally. […] This value is calculated using a standard curve fitting software package Origin™. […]

The target in test [1] is T1, human cytochrome P450 (CYP) 1A2 (Homo sapiens, UniProt P05177).
T1 construct: made in house; host or cells: yeast (microsomal fraction)
T1 sequence (P05177 1-516): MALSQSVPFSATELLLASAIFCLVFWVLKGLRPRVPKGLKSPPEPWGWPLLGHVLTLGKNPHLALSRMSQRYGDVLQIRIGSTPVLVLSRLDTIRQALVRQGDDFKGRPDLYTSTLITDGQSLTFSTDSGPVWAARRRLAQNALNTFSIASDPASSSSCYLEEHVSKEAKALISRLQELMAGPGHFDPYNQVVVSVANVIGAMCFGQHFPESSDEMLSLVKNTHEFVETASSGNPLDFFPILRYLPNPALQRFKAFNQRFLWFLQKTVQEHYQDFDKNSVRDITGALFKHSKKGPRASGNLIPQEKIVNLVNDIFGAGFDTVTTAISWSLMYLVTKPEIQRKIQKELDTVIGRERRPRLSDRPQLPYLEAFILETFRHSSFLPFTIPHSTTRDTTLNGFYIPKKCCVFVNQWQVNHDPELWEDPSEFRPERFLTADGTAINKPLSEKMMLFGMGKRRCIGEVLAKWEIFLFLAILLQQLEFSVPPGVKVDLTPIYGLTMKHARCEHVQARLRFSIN
Put plainly: Cytochrome P450 Inhibition Assay, CYP 1A2. The format is in vitro ADME. To be noted: test compound 0.1-10 μM, substrate CEC. The protocol: Cytochrome P450 Inhibition Assay
The inhibitory potential (IC50) of test compounds against 5 human cytochrome P450 (CYP) isoforms (1A2, 2C9, 2C19, 3A4 and 2D6) was assessed using an automated fluorescent end point in vitro assay modified from Crespi (Crespi and Stresser, J Pharmacol Toxicol Methods 2000, 44: 325-331). Microsomal subcellular fractions prepared from Yeast cell lines expressing each human CYP isoform were used as an enzyme source in this assay. The activity of the 5 major human CYPs was determined from the biotransformation of a number of coumarin substrates to fluorescent metabolites, in the presence of NADPH. […] Comparison of the fluorescence observed in the presence of varying concentrations of test compound with that seen in its absence allowed an IC50 value to be calculated. […] The appropriate solvent controls and substrate blanks were included in each experiment to assess control activity and identify any inherent fluorescence due to the test compounds. […] The plates were read on a fluorimeter (Spectrafluor Plus) at the appropriate excitation and emission wavelengths (listed in Table 2) and the percent activity, corrected for control, was plotted against the test compound concentration.

Sequence of FGFR1 (P11362 22-822): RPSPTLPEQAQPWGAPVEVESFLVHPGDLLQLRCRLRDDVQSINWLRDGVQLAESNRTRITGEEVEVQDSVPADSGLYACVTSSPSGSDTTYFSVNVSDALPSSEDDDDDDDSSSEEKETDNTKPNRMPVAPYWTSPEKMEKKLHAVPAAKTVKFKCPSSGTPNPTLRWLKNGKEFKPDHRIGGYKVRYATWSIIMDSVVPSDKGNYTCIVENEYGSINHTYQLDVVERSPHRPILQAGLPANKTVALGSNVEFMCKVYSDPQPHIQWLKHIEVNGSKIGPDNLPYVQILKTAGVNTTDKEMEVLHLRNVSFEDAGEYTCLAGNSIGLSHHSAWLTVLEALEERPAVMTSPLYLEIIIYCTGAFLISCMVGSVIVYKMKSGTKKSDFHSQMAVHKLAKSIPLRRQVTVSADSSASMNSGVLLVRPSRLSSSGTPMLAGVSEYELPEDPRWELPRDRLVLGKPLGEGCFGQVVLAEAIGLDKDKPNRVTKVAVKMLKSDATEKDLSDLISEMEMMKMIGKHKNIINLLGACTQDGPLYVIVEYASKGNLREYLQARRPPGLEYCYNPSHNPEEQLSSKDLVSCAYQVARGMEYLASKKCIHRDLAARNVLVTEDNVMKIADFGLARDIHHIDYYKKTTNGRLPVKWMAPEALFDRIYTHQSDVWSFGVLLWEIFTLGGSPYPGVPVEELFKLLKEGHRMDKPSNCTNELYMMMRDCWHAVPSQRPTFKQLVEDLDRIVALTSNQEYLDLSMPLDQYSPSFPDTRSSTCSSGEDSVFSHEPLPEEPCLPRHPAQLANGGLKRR

`COc1cc(CCc2cc(NC(=O)c3ccc(N4CCN(C)[C@@H](C)C4)cc3)[nH]n2)cc(OC)c1` [Example 1a, (S)—N-(3-(3,5-Dimethoxyphenethyl)-1H-pyrazol-5-yl)-4-(3,4-dimethylpiperazin-1-yl)benzamide]: the IC50 was 0.74 nM on FGFR1 and above 10000 nM in test [1].

In the case of `COc1cc(CCc2cc(NC(=O)c3ccc(N4CCN(C)[C@H](C)C4)cc3)[nH]n2)cc(OC)c1` [Example 1b, (R)—N-(3-(3,5-Dimethoxyphenethyl)-1H-pyrazol-5-yl)-4-(3,4-dimethylpiperazin-1-yl)benzamide], the IC50 was 1.1 nM and 0.64 nM and 0.76 nM at FGFR1; above 10000 nM in test [1].
